{"source": "patent US10391070B2", "about": "“Compositions and methods for treating neurological diseases or injury” (MUSC FOUNDATION FOR RESEARCH DEVELOPMENT, priority 2012, dated 2019)", "key": {"corneal kindled seizures": {"system": "corneal kindled seizures", "test": "Corneal kindled mouse model", "type": "in vivo", "conditions": "mice, 100 mg/kg i.p., 0.25 hrs", "protocol": "Mouse studies were performed by NIH Anticonvulsant Screening Program at the National Institute of Neurological Disorders and Stroke (Stables and Kupferberg, 1997) according to the established NIH experimental procedures outlined below. Compounds were delivered into mice by i.p. injection at a dose of 100 mg/kg in sterile 5% DMSO, 95% Neobee (Josey et al., 2013). One of four methods for seizure induction was subsequently administered to mice at 0.25, 0.5, 1, 2 and 4 h after treatment with compound. (1) Subcutaneous PTZ seizure threshold test. PTZ was administered at a concentration of 85 mg/kg, into the loose fold of skin in the midline of the neck. […] (2) Maximal electroshock test. 60 Hz of 50 mA alternating current was delivered for 0.2 s by corneal electrodes. Mice were considered protected from seizures when the hindlimb tonic extensor was absent (White et al., 1995). (3) Minimal clonic seizure (6 Hz) test. 6 Hz of 32 mA or 44 mA alternating current was delivered for 3 s by corneal electrodes to elicit a psychomotor seizure. Mice were considered protected from seizures when the automatistic behaviors were absent (Barton et al., 2001). (4) Corneal kindled mouse model. […]"}, "[1]": {"test": "Chronic toxicity evaluation in mice (blood count and chemistry)", "type": "in vivo, mouse", "conditions": "for blood count and chemistry parameters versus vehicle / weight loss, signs of pain or distress: mice, 50 mg/kg i.p. daily, three weeks", "protocol": "Adult (12 weeks of age) mice (Balb/cByJ, 17-20 g, Jackson Laboratory), were housed in temperature-controlled conditions under a light/dark photocycle with food and water supplied ad libitum. Mice were divided randomly into three groups. The first group (n=3) was injected i.p. with compound 2q at 50 mg/kg dissolved in sterile 5% DMSO, 95% Neobee (Spectrum Chemical) (Allen et al., 2006). The second group (n=3) was injected i.p. with compound 2j at 50 mg/kg dissolved in sterile 5% DMSO, 95% Neobee. The third, vehicle control group (n=2) was injected i.p. with an equivalent volume of sterile 5% DMSO, 95% Neobee. All animals were injected between 11:00 a.m. and 12:00 p.m. Animals were sacrificed by CO2 after three weeks of injections. Blood was collected by cardiac puncture and standard blood count and chemistry was evaluated by the MUSC/VA Veterinary Diagnostic Laboratory (Charleston, S.C.). All animal and treatment protocols were in compliance with the Guide for the Care and Use of Laboratory Animals as adopted and promulgated by the National Institutes of Health (Institute of Laboratory Animal Resources, 1996).\nPreliminary in vivo toxicity was assessed for compounds 2q and 2j in mice. […] Adult mice were injected intraperitoneally (i.p.) daily. […] After three weeks of chronic, high dose injections, animals were sacrificed and standard blood count and chemistry analyses performed."}, "[2]": {"test": "Presence in mouse brain by LC-MS", "type": "in vivo", "conditions": "mice, i.p. daily for three weeks, brain 2 hours after final injection", "protocol": "VK2 is synthesized in situ where it is needed. […] Utilizing small synthetic VK analog that can perform similarly to VK2 is of novelty for epileptic treatment. Mice were under I.P. daily injection of 2q for three weeks and their brains were harvested 2 hours after the final injection. The mouse brains were extracted with organic solvent. The presence and the level of 2q were determined using LC-MS techniques (FIG. 9). The presence of 2q was detected via mass spectrometry in the mice brain 2 hours after i.p. injections."}, "[3]": {"conditions": "mouse blood chemistry, 50 mg/kg, 3 wks i.p., individual animals 1-3"}, "[4]": {"conditions": "mouse complete blood count, 50 mg/kg, 3 wks i.p., individual animals 1-3"}}, "note": "Several values for one entry are separate records, joined by “and”; a condition that tells them apart may be missing. Equal values may be shown once."}
{"molecule": "C#CCNC1=CC(=O)c2ccccc2C1=O", "note": "[Compound 2h, 2-(prop-2-yn-1-ylamino)naphthalene-1,4-dione]", "values": [{"measurement": "Avg seizure score", "setting": "corneal kindled seizures", "value": 3.75}, {"measurement": "N/F (animals protected/animals tested)", "setting": "corneal kindled seizures", "value": "2/4"}]}
{"molecule": "O=C1C=C(NCc2ccccc2)C(=O)c2ccccc21", "note": "[Compound 2j, 2-(benzylamino)naphthalene-1,4-dione]", "values": [{"measurement": "blood count and chemistry parameters versus vehicle", "setting": "[1]", "value": "consistent with those of the vehicle control group"}, {"measurement": "weight loss, signs of pain or distress", "setting": "[1]", "value": "no weight loss or outward signs of pain or distress"}]}
{"molecule": "O=C1C=C(NCc2cccc(Cl)c2)C(=O)c2ccccc21", "note": "[Compound 2q, 2-((3-chlorobenzyl)amino)naphthalene-1,4-dione]", "values": [{"measurement": "blood count and chemistry parameters versus vehicle", "setting": "[1]", "value": "consistent with those of the vehicle control group"}, {"measurement": "weight loss, signs of pain or distress", "setting": "[1]", "value": "no weight loss or outward signs of pain or distress"}, {"measurement": "ALP", "setting": "[1]; [3]", "value": "72 U/L and 80 U/L and 60 U/L"}, {"measurement": "ALT", "setting": "[1]; [3]", "value": "34 U/L and 28 U/L and 33 U/L"}, {"measurement": "AST", "setting": "[1]; [3]", "value": "89 U/L and 71 U/L and 78 U/L"}, {"measurement": "Albumin", "setting": "[1]; [3]", "value": "3 g/dL and 3.2 g/dL and 2.8 g/dL"}, {"measurement": "BUN", "setting": "[1]; [3]", "value": "19 mg/dL (2×) and 20 mg/dL"}, {"measurement": "Creatinine", "setting": "[1]; [3]", "value": "0.16 mg/dL and 0.23 mg/dL and 0.18 mg/dL"}, {"measurement": "Glucose", "setting": "[1]; [3]", "value": "195 mg/dL (2×) and 205 mg/dL"}, {"measurement": "Total Bilirubin", "setting": "[1]; [3]", "value": 0.20, "unit": "mg/dL"}, {"measurement": "Total Protein", "setting": "[1]; [3]", "value": "5.2 g/dL and 5.3 g/dL and 4.9 g/dL"}, {"measurement": "BA", "setting": "[1]; [4]", "value": "0.01 K/uL and 0.05 K/uL and 0.02 K/uL"}, {"measurement": "EO", "setting": "[1]; [4]", "value": "0.10 K/uL and 0.17 K/uL and 0.01 K/uL"}, {"measurement": "HCT", "setting": "[1]; [4]", "value": "51.1% and 53.2% and 51.3%"}, {"measurement": "Hb", "setting": "[1]; [4]", "value": "13.9 g/dL (2×) and 14.5 g/dL"}, {"measurement": "LY", "setting": "[1]; [4]", "value": "3.30 K/uL and 5.14 K/uL and 2.45 K/uL"}, {"measurement": "MCH", "setting": "[1]; [4]", "value": "14.8 pg (2×) and 15.3 pg"}, {"measurement": "MCHC", "setting": "[1]; [4]", "value": "27.2 g/dL and 27.3 g/dL and 27.1 g/dL"}, {"measurement": "MCV", "setting": "[1]; [4]", "value": "54.4 fL and 56.2 fL and 54.8 fL"}, {"measurement": "MO", "setting": "[1]; [4]", "value": "0.32 K/uL and 0.43 K/uL and 0.35 K/uL"}, {"measurement": "MPV", "setting": "[1]; [4]", "value": "4.5 fL and 4.6 fL and 4.4 fL"}, {"measurement": "NE", "setting": "[1]; [4]", "value": "5.55 K/uL and 3.03 K/uL and 3.78 K/uL"}, {"measurement": "PLT", "setting": "[1]; [4]", "value": "1139 K/uL and 946 K/uL and 1050 K/uL"}, {"measurement": "RBC", "setting": "[1]; [4]", "value": "9.39 M/uL and 9.46 M/uL and 9.37 M/uL"}, {"measurement": "RDW", "setting": "[1]; [4]", "value": "17.8% and 17.7% and 17.4%"}, {"measurement": "WBC", "setting": "[1]; [4]", "value": "9.28 K/uL and 8.82 K/uL and 6.62 K/uL"}, {"measurement": "presence in brain (LC-MS)", "setting": "[2]", "value": "detected"}]}
